Reference: patent US12077503B2, “Substituted cyclic amides and their use as herbicides” (FMC CORPORATION, priority 2015, dated 2024)

Experiments:
Format in all cases: in vivo
Kochia (Kochia scoparia) [1] = experiment: Test A preemergence
Summary of the method: (§1)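 Visual injury, scored on a 0–100 scale relative to untreated controls, was recorded about 10 d after application. Treatments were a preemergence soil spray over planted seeds or a postemergence spray on plants at the one- to two-leaf stage, 2 to 10 cm tall, all in loam soil–sand blend in the greenhouse.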

[2] = tested on: barnyardgrass (Echinochloa crus-galli); experiment: Test A preemergence
Summary of the method: as §1

[3] = tested on: giant foxtail (Setaria faberii); experiment: Test A preemergence
Summary of the method: as §1

[4] = tested on: pigweed (Amaranthus retroflexus); experiment: Test A preemergence
[5] = tested on: ragweed (common ragweed, Ambrosia elatior); experiment: Test A preemergence
Summary of the method: as §1

[6] = tested on: ryegrass, Italian (Italian ryegrass, Lolium multiflorum); experiment: Test A preemergence
Summary of the method: as §1

[7] = tested on: Galium (catchweed bedstraw, Galium aparine); experiment: Test A postemergence
Summary of the method: as §1

Kochia (Kochia scoparia) [8] = experiment: Test A postemergence
Summary of the method: as §1

[9] = tested on: barnyardgrass (Echinochloa crus-galli); experiment: Test A postemergence
Summary of the method: as §1

[10] = tested on: blackgrass (Alopecurus myosuroides); experiment: Test A postemergence
Summary of the method: as §1

corn (Zea mays) = experiment: Test A postemergence
Summary of the method: as §1

[11] = tested on: giant foxtail (Setaria faberii); experiment: Test A postemergence
Summary of the method: as §1

[12] = tested on: pigweed (Amaranthus retroflexus); experiment: Test A postemergence
Summary of the method: as §1

[13] = tested on: ragweed (common ragweed, Ambrosia elatior); experiment: Test A postemergence
Summary of the method: as §1

[14] = tested on: ryegrass, Italian (Italian ryegrass, Lolium multiflorum); experiment: Test A postemergence
Summary of the method: as §1

[15] = tested on: wheat (Triticum aestivum); experiment: Test A postemergence
Summary of the method: as §1

[16] = tested on: barnyardgrass (Echinochloa crus-galli); experiment: Test B flooded paddy test; details: Flood, 250 g ai/ha; 0 to 100 scale where 0 is no effect and 100 is complete control; 13 to 15 d
Summary of the method: (§2)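 Rating scale 0–100 (visual, vs untreated controls) after a 13–15 d greenhouse period; application to the flood layer, 3 cm above soil and maintained; plants at 2-leaf stage when treated.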

[17] = tested on: ducksalad (Heteranthera limosa); experiment: Test B flooded paddy test; details: Flood, 250 g ai/ha; 0 to 100 scale where 0 is no effect and 100 is complete control; 13 to 15 d
Summary of the method: as §2

rice (Oryra sativa) = experiment: Test B flooded paddy test; details: Flood, 250 g ai/ha; 0 to 100 scale where 0 is no effect and 100 is complete control; 13 to 15 d
Summary of the method: as §2

[18] = tested on: sedge, umbrella (small-flower umbrella sedge, Cyperus difformis); experiment: Test B flooded paddy test; details: Flood, 250 g ai/ha; 0 to 100 scale where 0 is no effect and 100 is complete control; 13 to 15 d
Summary of the method: as §2

[19] = tested on: barnyardgrass (Echinochloa crus-galli); experiment: Test C flooded paddy test; details: Flood; for Plant response rating (scale of 0 to 100), Barnyardgrass: 0 is no effect, 100 is complete control
Text: (§3) Plant species in the flooded paddy test consisted of rice (Oryza sativa), sedge, umbrella (small-flower umbrella sedge, Cyperus difformis), ducksalad (Heteranthera limosa), and barnyardgrass (Echinochloa crus-galli) grown to the 2-leaf stage for testing. At time of treatment, test pots were flooded to 3 cm above the soil surface, treated by application of test compounds directly to the paddy water, and then maintained at that water depth for the duration of the test. Treated plants and controls were maintained in a greenhouse for 13 to 15 d, after which time all species were compared to controls and visually evaluated. Plant response ratings, summarized in Table C, are based on a scale of 0 to 100 where 0 is no effect and 100 is complete control. A dash (-) response means no test result.

[20] = tested on: ducksalad (Heteranthera limosa); experiment: Test C flooded paddy test; details: Flood; for Plant response rating (scale of 0 to 100), Ducksalad: 0 is no effect, 100 is complete control
Text: as §3

rice (Oryza sativa) = experiment: Test C flooded paddy test; details: Flood; for Plant response rating (scale of 0 to 100), Rice: 0 is no effect, 100 is complete control
Text: as §3

[21] = tested on: sedge, umbrella (small-flower umbrella sedge, Cyperus difformis); experiment: Test C flooded paddy test; details: Flood; for Plant response rating (scale of 0 to 100), Sedge, Umbrella: 0 is no effect, 100 is complete control
Text: as §3

[22] = 125 g ai/ha, Preemergence, visual injury after approximately 10 d, 0 to 100 scale where 0 is no effect and 100 is complete control
[23] = Preemergence, 500 g ai/ha, visual injury approx. 10 d
[24] = 125 g ai/ha, postemergence, visual rating after approx. 10 d, 0 to 100 scale (0 no effect, 100 complete control)
[25] = Postemergence, 500 g ai/ha, 0 to 100 scale where 0 is no effect and 100 is complete control
[26] = 500 g ai/ha, preemergence, 0 to 100 scale, 0 = no effect, 100 = complete control
[27] = 500 g ai/ha, postemergence, visual injury, 0 to 100 scale (0 no effect, 100 complete control), approx. 10 d
[28] = 31 g ai/ha, scale 0 to 100 (0 no effect, 100 complete control), 13 to 15 d

In the case of C=CCN1CC(c2cccc(C(F)(F)F)c2)C(C(=O)Nc2cccc(F)c2F)C1=O (centres unmarked) [Compound 606], the “Plant response rating, Kochia” value (Kochia (Kochia scoparia) [1]; [22]) is reported as 0, the “Kochia plant response rating (0 to 100 scale, 0 is no effect, 100 is complete control)” value (Kochia (Kochia scoparia) [1]; [23]) is reported as 0 and the “Plant response rating, Barnyardgrass” value [2, 22] is reported as 50. For the same compound, the “Barnyardgrass plant response rating (0 to 100 scale, 0 is no effect, 100 is complete control)” value [2, 23] was 80, the “Plant response rating, Foxtail, Giant” value [3, 22] was 80 and the “Foxtail, Giant plant response rating (0 to 100 scale, 0 is no effect, 100 is complete control)” value [3, 23] was 90. For the same compound, the “Plant response rating, Pigweed” value [4, 22] was 0, the “Pigweed plant response rating (0 to 100 scale, 0 is no effect, 100 is complete control)” value [4, 23] was 0 and the “Plant response rating, Ragweed” value [5, 22] was 0. For the same compound, the “Ragweed plant response rating (0 to 100 scale, 0 is no effect, 100 is complete control)” value [5, 23] was 0, the “Plant response rating, Ryegrass, Italian” value [6, 22] was 0 and the “Ryegrass, Italian plant response rating (0 to 100 scale, 0 is no effect, 100 is complete control)” value [6, 23] was 0. The “Plant response rating, Galium” value [7, 24] was 60, the “Plant response rating, Galium” value [7, 25] was 70 and the “Plant response rating, Kochia” value (Kochia (Kochia scoparia) [8]; [24]) was 0. For the same compound, the “Plant response rating, Kochia” value (Kochia (Kochia scoparia) [8]; [25]) was 0, the “Plant response rating, Barnyardgrass” value [9, 24] was 50 and the “Plant response rating, Barnyardgrass” value [9, 25] was 70. The “Plant response rating, Blackgrass” value [10, 24] was 0, the “Plant response rating, Blackgrass” value [10, 25] was 40 and the “Plant response rating, Corn” value (corn (Zea mays); [24]) was 0. For the same compound, the “Plant response rating, Corn” value (corn (Zea mays); [25]) was 0, the “Plant response rating, Foxtail, Giant” value [11, 24] was 70 and the “Plant response rating, Foxtail, Giant” value [11, 25] was 90. The “Plant response rating, Pigweed” value [12, 24] was 50, the “Plant response rating, Pigweed” value [12, 25] was 70 and the “Plant response rating, Ragweed” value [13, 24] was 0. For the same compound, the “Plant response rating, Ragweed” value [13, 25] was 0, the “Plant response rating, Ryegrass, Italian” value [14, 24] was 0 and the “Plant response rating, Ryegrass, Italian” value [14, 25] was 0. The “Plant response rating, Wheat” value [15, 24] was 0, the “Plant response rating, Wheat” value [15, 25] was 0 and the “Plant response rating, Barnyardgrass” value [16] was 50. The “Plant response rating, Ducksalad” value [17] was 0, the “Plant response rating, Rice” value (rice (Oryra sativa)) was 0 and the “Plant response rating, Sedge, Umbrella” value [18] was 40. For the same compound, the “Plant response rating (scale of 0 to 100), Barnyardgrass” value ([19]; 31 g ai/ha) was 0, the “Plant response rating (scale of 0 to 100), Barnyardgrass” value ([19]; 62 g ai/ha) was 0 and the “Plant response rating (scale of 0 to 100), Barnyardgrass” value ([19]; 125 g ai/ha) was 20. For the same compound, the “Plant response rating (scale of 0 to 100), Barnyardgrass” value ([19]; 250 g ai/ha) was 40, the “Plant response rating (scale of 0 to 100), Ducksalad” value ([20]; 31 g ai/ha) was 0 and the “Plant response rating (scale of 0 to 100), Ducksalad” value ([20]; 62 g ai/ha) was 0. For the same compound, the “Plant response rating (scale of 0 to 100), Ducksalad” value ([20]; 125 g ai/ha) was 50, the “Plant response rating (scale of 0 to 100), Ducksalad” value ([20]; 250 g ai/ha) was 70 and the “Plant response rating (scale of 0 to 100), Rice” value (rice (Oryza sativa); 31 g ai/ha) was 0. For the same compound, the “Plant response rating (scale of 0 to 100), Rice” value (rice (Oryza sativa); 62 g ai/ha) was 0, the “Plant response rating (scale of 0 to 100), Rice” value (rice (Oryza sativa); 125 g ai/ha) was 0 and the “Plant response rating (scale of 0 to 100), Rice” value (rice (Oryza sativa); 250 g ai/ha) was 0. The “Plant response rating (scale of 0 to 100), Sedge, Umbrella” value ([21]; 31 g ai/ha) was 0, the “Plant response rating (scale of 0 to 100), Sedge, Umbrella” value ([21]; 62 g ai/ha) was 0 and the “Plant response rating (scale of 0 to 100), Sedge, Umbrella” value ([21]; 125 g ai/ha) was 0. The “Plant response rating (scale of 0 to 100), Sedge, Umbrella” value ([21]; 250 g ai/ha) was 0.
With CC(C)Oc1cccc(C2CN(C)C(=O)C2C(=O)Nc2ccccc2F)c1 (centres unmarked) [Compound 650] the “Plant response rating, Kochia” value (Kochia (Kochia scoparia) [1]; [22]) was 30, the “Plant response rating, Kochia” value (Kochia (Kochia scoparia) [1]; [26]) was 70 and the “Plant response rating, Barnyardgrass” value [2, 22] was 100. The “Plant response rating, Barnyardgrass” value [2, 26] was 100, the “Plant response rating, Foxtail, Giant” value [3, 22] was 100 and the “Plant response rating, Foxtail, Giant” value [3, 26] was 100. For the same compound, the “Plant response rating, Pigweed” value [4, 22] was 50, the “Plant response rating, Pigweed” value [4, 26] was 90 and the “Plant response rating, Ragweed” value [5, 22] was 0. For the same compound, the “Plant response rating, Ragweed” value [5, 26] was 80, the “Plant response rating, Ryegrass, Italian” value [6, 22] was 40 and the “Plant response rating, Ryegrass, Italian” value [6, 26] was 90. For the same compound, the “Plant response rating, Galium” value [7, 24] was 50, the “Plant response rating, Galium” value [7, 27] was 70 and the “Plant response rating, Kochia” value (Kochia (Kochia scoparia) [8]; [24]) was 0. The “Plant response rating, Kochia” value (Kochia (Kochia scoparia) [8]; [27]) was 40, the “Plant response rating, Barnyardgrass” value [9, 24] was 90 and the “Plant response rating, Barnyardgrass” value [9, 27] was 90. The “Plant response rating, Blackgrass” value [10, 24] was 50, the “Plant response rating, Blackgrass” value [10, 27] was 50 and the “Plant response rating, Corn” value (corn (Zea mays); [24]) was 40. The “Plant response rating, Corn” value (corn (Zea mays); [27]) was 90, the “Plant response rating, Foxtail, Giant” value [11, 24] was 90 and the “Plant response rating, Foxtail, Giant” value [11, 27] was 90. For the same compound, the “Plant response rating, Pigweed” value [12, 24] was 0, the “Plant response rating, Pigweed” value [12, 27] was 0 and the “Plant response rating, Ragweed” value [13, 24] was 0. For the same compound, the “Plant response rating, Ragweed” value [13, 27] was 30, the “Plant response rating, Ryegrass, Italian” value [14, 24] was 60 and the “Plant response rating, Ryegrass, Italian” value [14, 27] was 70. The “Plant response rating, Wheat” value [15, 24] was 30, the “Plant response rating, Wheat” value [15, 27] was 70 and the “Plant response rating, Barnyardgrass” value [16] was 80. The “Plant response rating, Ducksalad” value [17] was 100, the “Plant response rating, Rice” value (rice (Oryra sativa)) was 0 and the “Plant response rating, Sedge, Umbrella” value [18] was 0. For the same compound, the “Plant response rating, Barnyardgrass” value [19, 28] was 20, the “Plant response rating (scale of 0 to 100), Barnyardgrass” value ([19]; 62 g ai/ha) was 20 and the “Plant response rating (scale of 0 to 100), Barnyardgrass” value ([19]; 125 g ai/ha) was 60. For the same compound, the “Plant response rating (scale of 0 to 100), Barnyardgrass” value ([19]; 250 g ai/ha) was 75, the “Plant response rating, Ducksalad” value [20, 28] was 60 and the “Plant response rating (scale of 0 to 100), Ducksalad” value ([20]; 62 g ai/ha) was 70. The “Plant response rating (scale of 0 to 100), Ducksalad” value ([20]; 125 g ai/ha) was 90, the “Plant response rating (scale of 0 to 100), Ducksalad” value ([20]; 250 g ai/ha) was 95 and the “Plant response rating, Rice” value (rice (Oryza sativa); [28]) was 0. The “Plant response rating (scale of 0 to 100), Rice” value (rice (Oryza sativa); 62 g ai/ha) was 0, the “Plant response rating (scale of 0 to 100), Rice” value (rice (Oryza sativa); 125 g ai/ha) was 0 and the “Plant response rating (scale of 0 to 100), Rice” value (rice (Oryza sativa); 250 g ai/ha) was 0. The “Plant response rating, Sedge, Umbrella” value [21, 28] was 0, the “Plant response rating (scale of 0 to 100), Sedge, Umbrella” value ([21]; 62 g ai/ha) was 0 and the “Plant response rating (scale of 0 to 100), Sedge, Umbrella” value ([21]; 125 g ai/ha) was 0. For the same compound, the “Plant response rating (scale of 0 to 100), Sedge, Umbrella” value ([21]; 250 g ai/ha) was 0.
